For data set [1], the system named is intracranial luciferase-expressing FGFR3-TACC3-driven glioma xenografts. Briefly: Orthotopic (intracranial) FGFR3-TACC3-driven glioma xenografts, drug treatment, survival. Particulars: 50 mg/kg, oral, 20 days. The data set is classed as in vivo, mouse. From the text: Mice were monitored daily and sacrificed when neurological symptoms appeared.
Data set [2] relates to human glioma stem cells GIC-1123. Particulars: GIC-1123, 72 hours, MTT. The method, then: (§1) Cell culture and cell growth assay. GIC-1123 gliomaspheres were cultured in neurobasal medium (Invitrogen) supplemented with B27, N2 (Invitrogen), EGF and FGF2 (20 ng/ml, PeproTech). Mouse astrocytes Ink4A-Arf−/− were cultured in DMEM supplemented with 10% Fetal Bovine Serum. Cells were seeded at 1,000 cells/well in a 96-well plate and treated with JNJ-42756493. After 72 hours cell viability was assessed using the 3-(4,5-dimethythiazol-2-yl)-2,5-diphenyl tetrazolium bromide (MTT) assay. Data are mean±SEM of six replicates. Experiments were performed three times.

Data set [3] relates to mouse astrocytes expressing FGFR3-TACC3. Particulars: mouse astrocytes expressing FGFR3-TACC3, 72 hours, MTT. The protocol:
as §1

The subject of data set [4] is mouse astrocytes expressing FGFR3-TACC3-KD or the empty vector. Particulars: cells expressing KD mutant fusion or empty vector. The protocol:
as §1

The subject of data set [5] is activated FGFR. Particulars: cited from earlier work.
Data set [6] concerns all members of the FGFR family. Particulars: cited from earlier work.
Data set [7] deals with GIC-1123 tumor xenografts. Kind of data set: Subcutaneous GIC-1123 xenografts treated with JNJ-42756493. The conditions noted are these: 12 mg/kg, oral.
Description: After tumor establishment (arrow) mice were treated with vehicle or JNJ-42756493 (12 mg/kg) for 14 days. Values are mean tumor volumes±SD, (n=9 mice per group). P-value of the slope calculated from the treatment starting point (arrow) is 0.04.
Subcutaneous xenografts and drug treatment. GIC-1123 cells (5×10^5) were injected subcutaneously in the flank of athymic nude (Nu/Nu) mice (Charles River Laboratories). Mice carrying ˜200 mm 3 subcutaneous tumors were randomized to receive 12 mg/kg JNJ-42756493 or DMSO in 1% Tween 80 by oral gavage. Tumor diameters were measured with caliper and tumor volumes estimated using the formula: 0.5×length×width 2. Data are mean±SD of nine mice in each group. Mice were sacrificed when tumors in the control group reached the maximal size allowed by the IACUC Committee at Columbia University.
Data set [8] deals with recurrent GBM harboring FGFR3-TACC3 fusions. Briefly: Phase I trial of JNJ-42756493 in patients with recurrent GBM harboring FGFR3-TACC3 (MRI, RANO, volumetry).
Excerpt: (A) Post-gadolinium T1 weighted images show the target lesion on the right parietal lobe. […] (B) Analysis of sum of product diameters (SPD) before and during the anti-FGFR treatment (RANO criteria). (C) Analysis of tumor volume (cm3) before and during the anti-FGFR treatment. […] (D) Perfusion images at baseline and after 20 days of anti-FGFR treatment. rCBV (relative cerebral blood volume). Post-gadolinium T1 weighted images with color overlay of rCBV are shown. […] (F) Analysis of sum of product diameters (SPD) before and during the anti-FGFR treatment.
MRI imaging and evaluation of clinical response to JNJ-42756493. Baseline and follow-up imaging assessments were performed on 1.5 Tesla MR imaging systems, including at least axial T1 weighted images before gadolinium injection, Axial or 3D FLAIR (Fluid-Attenuated Inversion-Recovery), dynamic susceptibility contrast MR perfusion (0.1 mmol/kg of gadobutrol), axial and 3D T1 weighted images after gadolinium injection. Tumor response was assessed according to the RANO criteria (33). Contrast-enhancing lesion volume was assessed with the help of a semi-automated volumetry tool (SegmentiX), based on shape-detection and thresholding, with control and manual correction of edges when necessary. Since exclusion of cystic or necrotic portions of the lesion may be affected by operator subjectivity, both were included for volumetric and axial measurements.
DSC (dynamic susceptibility contrast) perfusion datasets were processed with vendor's software suite (Neuroperfusion, Philips), including coregistration and rCBV (relative cerebral blood volume) parametric maps generation with 3 different algorithms (Gamma-variate fitting, Arterial Input Function based deconvolution and Model Free).
In data set [9] the test system is nonclinical models with FGFR aberrations. The conditions noted are these: squamous NSCLC, gastric, breast, HCC, endometrial, bladder; cited from earlier work.
Data set [10] relates to Rat1A cells and Ink4A;Arf-/- astrocytes. Briefly: Premature sister chromatid separation (PMSCS) in metaphase spreads. The data set is classed as cell-based. Particulars: cells expressing FGFR3-TACC3. An excerpt:
Correction of premature sister chromatid separation (PMSCS) by PD173470 in cells expressing FGFR3-TACC3. Panels show representative metaphase spreads. DNA was stained by DAPI.
Left, panels show representative metaphase spreads. Right, quantitative analysis of metaphases with loss of sister chromatid cohesion. The number of mitosis with PMSCS in Ink4A; Arf−/− astrocytes was scored in at least 100 methaphases for each condition in three independent experiments. The number of mitosis with PMSCS was scored in triplicate samples of Rat1A cells. FIG. 13D is a graph showing nocodazole was added for the indicated durations to Rat1A-H2B-GFP cells transduced with the specified lentiviruses. The mitotic index at each time point was determined by quantitating the H2B-GFP-positive cells in mitosis at each time point. Data are presented as average and standard deviation (n=3).
(§2) Karyotype analysis. Cultured cells were colcemid (20 ng/ml) treated for 90 minutes before harvesting for karyotopic analysis as detailed in Extended Experimental procedures. At least one hundred cells in metaphase were examined for chromosome count. PMSCS was scored in cells where a majority of the sister chromosomes were no longer associated. Two-tailed unpaired t-tests with Welch's correction were performed for comparison of means analysis.

Data set [11] has as its system Rat1A cells. Briefly: Karyotype analysis (chromosome counts, aneuploidy) of Rat1A cells. The data set is classed as cell-based, rat. Particulars: five days. The method, then:
Distribution of chromosome counts of cells arrested in mitosis and analyzed for karyotypes using DAPI. Chromosomes were counted in 100 metaphase cells for each condition to determine the ploidy and the diversity of chromosome counts within the cell population. FGFR3-TACC3 fusion induces aneuploidy.
The upper panel is a karyotype analysis of Rat1A cells transduced with control or FGFR3-TACC3 lentivirus and treated with vehicle (DMSO) or PD173470 (100 nM) for five days.
as §2
Karyotypic Analysis. The colcemid treated cells were trypsinized, centrifuged for 7 minutes at 200×g, and the cell pellet re-suspended in warmed hypotonic solution and incubated at 37° C. for 13 minutes. The swollen cells were then centrifuged and the pellet re-suspended in 8 ml of Carnoy's fixative (3:1 methanol:glacial acetic acid). […] Slides were stained with DAPI and metaphases were analyzed under a fluorescent microscope.

In data set [12] the target is T1, FGFR3-TACC3 (Homo sapiens, UniProt P22607).
T1 construct: a protein of 1,048 amino acids resulting from the fusion of a FGFR3 amino-terminal portion of residues 1-758; expressed in transfected cells; host or cells: Ink4A;Arf-/- mouse astrocytes, lentiviral transduction (pLOC-GFP / pTomo vectors)
Briefly: Western blot of constitutive phosphorylation of FGFR3-TACC3 and FRS2 in Ink4A;Arf-/- astrocytes. Format: cell-based, mouse. The conditions noted are these: 100 nM PD173074, Ink4A;Arf-/- astrocytes. The method, then:
Ink4A; Arf−/− astrocytes transduced with empty lentivirus or a lentivirus expressing FGFR3-TACC3 or FGFR3-TACC3-K508M were left untreated (0) or treated with 100 nM of the FGFR inhibitor PD173074 for the indicated times. Phospho-proteins and total proteins were analyzed by Western blot using the indicated antibodies.

The subject of data set [13] is glioma xenografts of FGFR3-TACC3 transformed astrocytes. Briefly: Subcutaneous glioma xenografts of FGFR3-TACC3 transformed astrocytes, drug treatment. Format: in vivo, mouse. The conditions noted are these: 50 mg/kg, oral gavage. The method, then: Subcutaneous xenografts and drug treatment. […] For experiments with FGFR inhibitors, mice carrying ˜200-300 mm 3 subcutaneous tumors derived from Ink4A; Arf−/− astrocytes were randomized to receive 50 mg/kg PD173074 in 0.05 M lactate buffer (pH 5) or an equal volume of lactate buffer by oral gavage. Treatment was administered for three cycles consisting of four consecutive days followed by two days of rest. […] Data are expressed as mean±SE.

Data set [14] relates to Rat1A cells expressing FGFR3-TACC3 fusion. Kind of data set: Growth of Rat1A cells expressing FGFR3-TACC3 after FGFR3 shRNA lentivirus (trypan blue exclusion). The data set is classed as cell-based, rat. The conditions noted are these: lentiviral shRNA. The protocol: At the left, parallel cultures of GSC-1123 cells were transduced in triplicate. Rat1A cells expressing FGFR3-TACC3 fusion were transduced with lentivirus expressing a non-targeting shRNA (Ctr) or shRNA sequences targeting FGFR3 (sh2, sh3, sh4). Five days after infection cells were plated at density of 2λ10^4 cells/well in triplicate and the number of trypan blue excluding cells was scored at the indicated times. […] Values are the means±standard deviation (n=3). At the right sided figure, GSC-1123 cells were transduced with lentivirus expressing a non-targeting shRNA (sh-Ctr) or lentivirus expressing sh-3 and sh-4 sequences targeting FGFR3. Western Blot analysis was performed on parallel cultures using the FGFR3 antibody to the detect FGFT3-TACC3 fusion protein. β-actin is shown as a control for loading.
Cloning and Lentiviral production. Lentiviral expression vectors, pLOC-GFP (Open Biosystems) and pTomo-shp53, were used to clone FGFR3, TACC3, FGFR3-TACC3, FGFR3-TACC3-K508M, and FGFR1-TACC1. pTomo-shp53 was a gift of Inder Verma and Dinorah Friedman-Morvinski (Salk Institute, San Diego). The FGFR3-TACC3-K508M mutant was generated using the Phusion Site Direct Mutagenesis kit (NEB, USA). MISSION shRNAs clones (pLK0.1 lentiviral expression vectors) against FGFR3 were purchased from Sigma. The hairpin sequences targeting the FGFR3 gene are—

pIC50: −log10 of the molar value. Entries after “also recorded” stand apart in the source; their conditions may differ.

Regarding `COc1cc(CCc2cc(NC(=O)c3ccc(N4C[C@@H](C)N[C@@H](C)C4)cc3)n[nH]2)cc(OC)c1` [AZD4547], in [1], the “survival of mice with intracranial FGFR3-TACC3 glioma” value was “markedly prolonged survival”.

The molecule `COc1cc(OC)cc(N(CCNC(C)C)c2ccc3ncc(-c4cnn(C)c4)nc3c2)c1` [JNJ-42756493] showed a pIC50 in data set [2] of 8.81. Also, the pIC50 in data set [3] was 8.52. Further, the “sensitivity to FGFR inhibition” value in data set [4] is “but not cells expressing the KD mutant fusion or the empty vector”. Further, the “concentration inhibiting tyrosine phosphorylation of activated FGFR” value in data set [5] is “nanomolar concentrations”. In data set [6], the “IC50 values for all members of the FGFR family” value is on record as “low nanomolar range”. Also, in [7], the “growth of GIC-1123 tumor xenografts” value is listed as “potent growth inhibition”. The “tumor regression of GIC-1123 xenografts” value in data set [7] (after two weeks) is “statistically significant tumor regression”. In data set [8] (Patient 1), the “change of the enhancing parenchyma of the tumor mass” value is −44%; the duration of stabilization is listed as 115 days; the “toxicity observed during treatment” value is “grade I hyperphosphatemia, asthenia, dysgueusia, dry mouth, keratitis, and grade II nail changes”. Also, the “tumor response on MRI (RANO sum of product diameters, volumetry)” value in [8] (Patient 1, 12 mg/day, 7 days on/7 days off) is given as “stabilization of the tumor; also recorded: stable disease; also recorded: disease stabilization”. Moreover, the “extent of tumor vascularity (rCBV)” value in data set [8] (Patient 1, MR perfusion) is “marked reduction”. For the same molecule, in data set [8] (Patient 1, after 3 weeks), the clinical status entry was “marked clinical improvement”. Moreover, in data set [8] (Patient 2), the “time to best response” value is reported as 104 days; the “time to disease progression after start of anti-FGFR” value is 134 days; the “toxicity observed during treatment” value is “Grade I hyperphosphatemia, nail changes, and mucositis”; the tumor response category entry is listed as “minor response”. Moreover, in data set [8] (Patient 2, after 4 weeks), the clinical status entry was “clinical improvement”. Moreover, in data set [8] (Patient 2, best response), the “reduction of tumor size according to the RANO criteria” value was determined as 22% and the “tumor reduction according to volumetry” value is listed as 28%. Further, the “antitumor activities in nonclinical models with FGFR aberrations” value in data set [9] is “potent antitumor activities”.

As to `CCN(CC)CCCCNc1ncc2cc(-c3cc(OC)cc(OC)c3)c(NC(=O)NC(C)(C)C)nc2n1` [PD173074], the “cohesion defect (premature sister chromatid separation)” value was “largely corrected” in data set [10] and “Correction” in data set [10] (listed as PD173470). Further, the “distribution of chromosome counts” value in data set [11] (Rat1A expressing FGFR3-TACC3, 100 nM) is on record as “restored the narrow distribution of chromosome counts”. For the same molecule, the “rescue of the aneuploidy caused by FGFR3-TACC3” value in [11] (Rat1A, 100 nM) is given as “over 80%”. Besides, in data set [12], the “constitutive phosphorylation of the TK domain of FGFR3-TACC3 and of FRS2” value was “abolished”. Further, the “tumor growth of FGFR3-TACC3 glioma subcutaneous xenografts” value in data set [13] is reported as “potent growth inhibition”.

With “sh-3: MISSION shRNA hairpin targeting the FGFR3 gene, SEQ ID NO: 183 (guide GTTCCACTGCAAGGTGTACAG; the letters are possibly those of the target site)”, the “growth of cells ectopically expressing FGFR3-TACC3 after FGFR3 silencing” value in data set [14] was “reverted the growth rate”.

With “sh-4: MISSION shRNA hairpin targeting the FGFR3 gene, SEQ ID NO: 184 (guide GCACAACCTCGACTACTACAA; the letters are possibly those of the target site)”, the “growth of cells ectopically expressing FGFR3-TACC3 after FGFR3 silencing” value in data set [14] is on record as “reverted the growth rate”.

Values taken from US12006503B2, “Fusion proteins and methods thereof” (The Trustees of Columbia University in the City of New York, priority 2012, dated 2024).
